Assay results taken from patent US10448639B2, “Fungicidal pyrazoles” (FMC CORPORATION, priority 2009, dated 2019).

Legend:
Botrytis cinerea = assay: Test B: tomato Botrytis, preventive spray on tomato seedlings, visual disease rating; conditions: tomato Botrytis, 100 = 100% disease control; for Test B rating (% disease control): preventive spray, 0 = no control; for Test B disease control rating: 0 = no disease control relative to controls
[1] = test system: Erysiphe graminis f sp. tritici; assay: Test J: wheat powdery mildew, preventive spray on wheat seedlings, visual disease rating; conditions: wheat powdery mildew, 100 = 100% disease control; for Test J rating (% disease control): preventive spray, 0 = no control; for Test J disease control rating: sprayed the day before inoculation, 0 = no disease control relative to controls
Text: (§1) General protocol for preparing test suspensions for Tests A-J: the test compounds were first dissolved in acetone in an amount equal to 3% of the final volume and then suspended at the desired concentration (in ppm) in acetone and purified water (50/50 mix by volume) containing 250 ppm of the surfactant Trem® 014 (polyhydric alcohol esters). The resulting test suspensions were then used in Tests A-J. Spraying a 200 ppm test suspension to the point of run-off on the test plants was the equivalent of a rate of 500 g/ha. Unless otherwise indicated, the rating values indicate a 200 ppm test suspension was used. (An asterisk “*” next to the rating value indicates a 40 ppm test suspension was used.)
The test suspension was sprayed to the point of run-off on wheat seedlings. The following day the seedlings were inoculated with a spore dust of Erysiphe graminis f sp. tritici, (the causal agent of wheat powdery mildew) and incubated in a growth chamber at 20° C. for 8 days, after which time visual disease ratings were made.

[2] = test system: Puccinia recondita f. sp. tritici; assay: Test I: wheat leaf rust, preventive spray on wheat seedlings, visual disease rating; conditions: wheat leaf rust, 100 = 100% disease control; for Test I rating (% disease control): preventive spray, 0 = no control; for Test I disease control rating: sprayed the day before inoculation, 0 = no disease control relative to controls
Rhizoctonia solani = assay: Test E: turf brown patch, preventive spray on creeping bent grass (Agrostis sp.) seedlings, disease rating; format: in vivo; conditions: 100 = 100% disease control; for Test E rating (% disease control): preventive spray, 0 = no control; for Test E disease control rating: 0 = no disease control relative to controls
Text: A dash (-) indicates no test results.

Septoria nodorum = assay: Test F: Septoria glume blotch, preventive spray on wheat seedlings, visual disease rating; conditions: Septoria glume blotch on wheat, 100 = 100% disease control; for Test F rating (% disease control): preventive spray, 0 = no control; for Test F disease control rating: 0 = no disease control relative to controls
Phytophthora infestans = format: in vivo; conditions: tomato late blight, preventive spray; 100 = 100% disease control, 0 = no control
Alternaria solani = assay: Test C: tomato early blight, preventive spray on tomato seedlings, visual disease rating; conditions: tomato early blight, 100 = 100% disease control; for Test C rating (% disease control): preventive spray, 0 = no control; for Test C disease control rating: 0 = no disease control relative to controls
Septoria tritici = assay: Test G: wheat leaf blotch, preventive spray on wheat seedlings, visual disease rating; conditions: wheat leaf blotch, 100 = 100% disease control; for Test G rating (% disease control): preventive spray, 0 = no control; for Test G disease control rating: sprayed the day before inoculation, 0 = no disease control relative to controls
[3] = test system: Puccinia recondita f. sp. tritici; assay: Test H: wheat leaf rust, curative spray on inoculated wheat seedlings, visual disease rating; conditions: wheat leaf rust, sprayed after inoculation; 100 = 100% disease control, 0 = no disease control relative to controls
Text: as §1
Wheat seedlings were inoculated with a spore suspension of Puccinia recondita f. sp. tritici (the causal agent of wheat leaf rust) and incubated in a saturated atmosphere at 20° C. for 24 h, and then moved to a growth chamber at 20° C. for 2 days. At the end of this time the test suspension was sprayed to the point of run-off, and then the seedlings were moved to a growth chamber at 20° C. for 6 days after which time visual disease ratings were made.

Row | Structure (SMILES) | Test B rating (% disease control) (Botrytis cinerea) [%] | Test J rating (% disease control) [1] [%] | Test I rating (% disease control) [2] [%] | Test E rating (% disease control) (Rhizoctonia solani) [%] | Test F rating (% disease control) (Septoria nodorum) [%] | Test D rating (% disease control) (Phytophthora infestans) [%] | Test C rating (% disease control) (Alternaria solani) [%] | Test G rating (% disease control) (Septoria tritici) [%] | Test B disease control rating (Botrytis cinerea) [%] | Test J disease control rating [1] [%] | Test I disease control rating [2] [%] | Test E disease control rating (Rhizoctonia solani) [%] | Test F disease control rating (Septoria nodorum) [%] | Test C disease control rating (Alternaria solani) [%] | Test G disease control rating (Septoria tritici) [%] | Test H disease control rating [3] [%]
1 | Cc1nn(C)c(Nc2cc(F)cc(F)c2)c1-c1ccc(F)cc1Cl [compound 9] | 99 | 97 | 98 | 55 | 0 | 0 | 0 | 100 | – | – | – | – | – | – | – | –
2 | Cc1nn(C)c(Nc2cc(F)cc(F)c2F)c1-c1ccc(Cl)cc1 [compound 10] | 47 | 0 | 0 | 0 | 0 | 0 | 0 | 0 | – | – | – | – | – | – | – | –
3 | Cc1nn(C)c(Nc2ccc(F)cc2)c1-c1ccc(F)cc1Cl [compound 11] | 99 | 100 | 99 | 99 | 0 | 0 | 99 | 100 | – | – | – | – | – | – | – | –
4 | Cc1nn(C)c(Nc2ccccc2F)c1-c1ccc(F)cc1Cl [compound 12] | 99 | 100 | 99 | 99 | 0 | 0 | 93 | 100 | – | – | – | – | – | – | – | –
5 | Cc1nn(C)c(Nc2ccc(F)cc2F)c1-c1ccc(F)cc1Cl [compound 13] | 99 | 99 | 100 | 98 | 64 | 0 | 100 | 100 | – | – | – | – | – | – | – | –
6 | Cc1nn(C)c(N(c2c(F)cc(F)cc2F)S(C)(=O)=O)c1-c1ccc(F)cc1Cl [compound 304] | – | – | – | – | – | – | – | – | 0 | 0 | 0 | 0 | 0 | 0 | 16 | –
7 | COCN(c1c(F)cc(F)cc1F)c1c(-c2ccc(F)cc2Cl)c(C)nn1C [compound 309] | – | – | – | – | – | – | – | – | 97 | 99 | 0 | 92 | 60 | 61 | 100 | –
8 | Cc1nn(C)c(Nc2ccc(F)cc2Br)c1-c1c(Cl)cccc1Cl [compound 340] | – | – | – | – | – | – | – | – | 99 | 100 | 91 | – | 0 | 0 | 100 | 0
9 | Cc1nn(C)c(Nc2c(Cl)cc(F)cc2Cl)c1-c1c(Cl)cccc1Cl [compound 341] | – | – | – | – | – | – | – | – | 99 | 93 | 99 | – | 0 | 0 | 99 | 0
10 | Cc1nn(C)c(Oc2ccc(C#N)cc2F)c1-c1c(F)cccc1Cl [compound 342] | – | – | – | – | – | – | – | – | 100 | 100 | 100 | – | 99 | 33 | 100 | 0
11 | Cc1nn(C)c(Nc2ccc([N+](=O)[O-])cc2F)c1-c1ccc(F)cc1Cl [compound 344] | – | – | – | – | – | – | – | – | 100 | 100 | 100 | – | 87 | 40 | 100 | 62
12 | Cc1nn(C)c(Nc2cc([N+](=O)[O-])ccc2F)c1-c1ccc(F)cc1Cl [compound 345] | – | – | – | – | – | – | – | – | 0 | 0 | 9 | – | 0 | 0 | 67 | 0
13 | Cc1nn(C)c(Nc2c(Cl)cc(F)cc2Br)c1-c1ccc(F)cc1F [compound 348] | – | – | – | – | – | – | – | – | 100 | 100 | 100 | – | 94 | 80 | 100 | 19
14 | Cc1nn(C)c(Nc2c(F)cccc2F)c1-c1ccc(Cl)cc1Cl [compound 353] | – | – | – | – | – | – | – | – | 97 | 99 | 99 | – | 0 | 17 | 99 | 3
15 | Cc1nn(C)c(Nc2ccc(F)cc2Cl)c1-c1ccc(Cl)cc1Cl [compound 354] | – | – | – | – | – | – | – | – | 99 | 100 | 98 | – | 0 | 0 | 100 | 82
16 | COc1ccc(Nc2c(-c3ccc(Cl)cc3Cl)c(C)nn2C)cc1 [compound 355] | – | – | – | – | – | – | – | – | 99 | 0 | 91 | – | 0 | 0 | 100 | 3
17 | Cc1nn(C)c(Oc2ccc(C#N)cc2Cl)c1-c1ccc(Cl)cc1Cl [compound 362] | – | – | – | – | – | – | – | – | 100 | 96 | 96 | – | 0 | 0 | 100 | 0
18 | Cc1nn(C)c(Nc2c(Cl)cc(F)cc2Cl)c1-c1ccc(Cl)cc1Cl [compound 363] | – | – | – | – | – | – | – | – | 65 | 43 | 96 | – | 0 | 0 | 99 | 0
19 | Cc1nn(C)c(Nc2ccc(Br)cc2F)c1-c1ccc(F)cc1Cl [compound 366] | – | – | – | – | – | – | – | – | 100 | 100 | 99 | – | 0 | 58 | 100 | 9
